Assay: xn = mol fraction of the nth substance listed
Conditions: 101 kPa

CCCCCCO + CCCCCCCC[n+]1ccc2ccccc2c1.O=S(=O)([N-]S(=O)(=O)C(F)(F)F)C(F)(F)F
x1 = 1
Conditions | viscosity [mPa·s]
298.15 K | 4.48
308.15 K | 3.34
318.15 K | 2.54
338.15 K | 1.56

CCCCO + CCCCCCCC[n+]1ccc2ccccc2c1.O=S(=O)([N-]S(=O)(=O)C(F)(F)F)C(F)(F)F
x1 = 1
Conditions | viscosity [mPa·s]
298.15 K | 2.54
308.15 K | 1.98
318.15 K | 1.57
328.15 K | 1.26
338.15 K | 1.03

OCCc1ccccc1 + CCCCCCCC[n+]1ccc2ccccc2c1.O=S(=O)([N-]S(=O)(=O)C(F)(F)F)C(F)(F)F
x1 = 1
Conditions | viscosity [mPa·s]
298.15 K | 10.9
308.15 K | 7.19
318.15 K | 4.98
328.15 K | 3.64
338.15 K | 2.77

CCCCCCCC[n+]1ccc2ccccc2c1.O=S(=O)([N-]S(=O)(=O)C(F)(F)F)C(F)(F)F + CCCCCCO
viscosity [mPa·s]
Conditions | x2 = 0 | x2 = 0.0854 | x2 = 0.2857 | x2 = 0.3673 | x2 = 0.4981 | x2 = 0.5825 | x2 = 0.6854 | x2 = 0.7913
298.15 K | 369 | 287.4 | 136.9 | 95.1 | 58.56 | 42.65 | 28.18 | 17.78
308.15 K | 191 | 153.3 | 78.6 | 56.09 | 35.72 | 26.62 | 18.08 | 11.64
318.15 K | 108.7 | 89.2 | – | 35.66 | 23.49 | 17.79 | 12.37 | 8.11
328.15 K | 67.9 | 56.19 | 32.57 | 24.14 | 16.33 | 12.59 | 8.87 | 5.88
338.15 K | 44.8 | 37.54 | 22.77 | 17.2 | 11.88 | 9.24 | – | 4.44

CCCCCCCC[n+]1ccc2ccccc2c1.O=S(=O)([N-]S(=O)(=O)C(F)(F)F)C(F)(F)F + CCCCO
viscosity [mPa·s]
Conditions | x2 = 0 | x2 = 0.0865 | x2 = 0.1708 | x2 = 0.3134 | x2 = 0.4036 | x2 = 0.5032 | x2 = 0.6067 | x2 = 0.6915 | x2 = 0.7937 | x2 = 0.9314
298.15 K | 369 | 276 | 205 | – | 84.3 | – | 33.87 | 22.84 | 12.59 | 6.1
308.15 K | 191 | 151.2 | 115.2 | – | 51.64 | 34.34 | 21.89 | – | 8.77 | 4.39
318.15 K | 108.7 | 89.2 | 69.5 | 44.66 | 32.98 | 22.81 | 15.04 | 10.61 | – | 3.32
328.15 K | 67.9 | 56.1 | – | 29.85 | 22.59 | 16.01 | 10.88 | 7.77 | 4.72 | 2.58
338.15 K | 44.88 | 37.87 | 31.27 | – | 16.68 | 11.78 | 8.15 | – | – | 2.06

CCCCCCCC[n+]1ccc2ccccc2c1.O=S(=O)([N-]S(=O)(=O)C(F)(F)F)C(F)(F)F + OCCc1ccccc1
viscosity [mPa·s]
Conditions | x2 = 0 | x2 = 0.0851 | x2 = 0.1985 | x2 = 0.3101 | x2 = 0.3748 | x2 = 0.4969 | x2 = 0.5766 | x2 = 0.695 | x2 = 0.8076 | x2 = 0.8956
298.15 K | 369 | 305 | 219 | 153.5 | 126.8 | 79.7 | – | 40.23 | 26.6 | –
308.15 K | 191 | 161.9 | 119.7 | 86.7 | 72.7 | 47.31 | 36.67 | – | 16.96 | 12.09
318.15 K | 108.7 | 93.8 | – | 53.23 | – | 30.33 | – | 16.64 | 11.53 | 8.35
328.15 K | 67.9 | – | 45.88 | 35.03 | – | 20.59 | – | – | 8.23 | 5.99
338.15 K | 44.8 | – | 31.17 | 24.37 | – | 14.79 | 12.01 | – | 6.09 | 4.45

Reference: a compilation of properties of binary mixtures (doi:10.1016/j.jct.2011.12.003)
